Assay results from patent US10932483B2, “Sweetness enhancer” (PepsiCo, Inc., priority 2014, dated 2021).
Where “and” joins values, the source holds several entries; their conditions need not be identical. Equal values may be shown once. Entries after “also recorded” stand apart in the source; their conditions may differ.

Columns and labels:
[1] = system: human sense of taste; experiment: Lab taste test (sip, spit, rinse) of sweetener solutions containing phloroglucinol against reference sweetener solutions; type: in vivo
Procedure: (§1) General Tasting Procedure: Unless otherwise specified in a given example, tastings were performed by a single taster using a “sip, spit, rinse” protocol. Under this protocol, the taster: • a. sipped up to about 10 ml of a given solution and assessed the sweetness, mouthfeel, and other characteristics of the solution during its residence in the taster's mouth; • b. spit out the solution after making the assessment; and • c. rinsed with water to cleanse the palate before testing any further samples.
Reference solutions: 5%, 7%, and 9% aqueous sucrose (sugar) solutions were prepared.
Reference solutions: 5%, 7%, and 9% aqueous sucrose solutions were prepared as in Example 1.
Reference solutions: 5%, 7%, 8% and 9% sucrose solutions in aqueous pH 3.0 citrate buffer solutions (citric acid 2.26 g plus trisodium citrate 0.32 g in 2 L water) were prepared.
Reference solutions: 2.5%, 3.5%, and 4% aqueous fructose (Sigma) solutions were prepared.
Reference solutions: 5%, 7%, 8% and 9% aqueous glucose (Sigma) solutions were prepared.
Reference solutions: 5%, 6%, 7%, 8% and 9% aqueous sucrose solutions were prepared. […] The variants were then tasted and assessed for their similarity to the reference solutions.
Reference solutions: 8%, 9%, 10%, and 11% aqueous sucrose solutions were prepared.
Reference solutions: 250 ppm and 320 ppm aqueous rebaudioside A solutions were prepared.

[2] = system: human sense of taste; experiment: Taste of phloroglucinol in water, alone or with salt; type: in vivo
Procedure: as §1
To analyze this effect, an experiment was conducted to determine whether NaCl could be used as a supplemental sweetness enhancer.

[3] = system: human sense of taste; experiment: Taste of sugar solutions with phloroglucinol and salt against sugar controls; type: in vivo; details: for phloroglucinol concentration required to achieve the sweetness of an 11% sugar solution: 8% sugar
Procedure: as §1
Half remained as a low control. Salt (300 ppm) was added to the other half (the “variant”). An 11% sugar solution was prepared as a high control.

[4] = system: human sense of taste; experiment: Taste of sugar solutions with phloroglucinol and supplemental sweetness enhancers; type: in vivo; details: Example 22: 500 ppm phloroglucinol, 350 ppm rebaudioside C, 8% sugar
Procedure: as §1
Three tasters conducted taste experiments on the blends identified in the table, below.
Experiments were conducted utilizing phloroglucinol and rebaudioside C in a sugar solutions.
Two testers tasted each of solutions 1 through 5, in the table above.
Taste experiments were conducted with sugar solutions comprising phloroglucinol and one of rebaudioside B, rebaudioside M, and trilobatin as set forth in the table, below.
Two testers tasted these solutions.
Five aqueous solutions comprising sugar, phloroglucinol, and/or rubusoside were prepared as set forth in the table below and tested for sweetness.

[5] = system: human sense of taste; experiment: Taste of beverages (cola, SIERRA MIST, diet cola) containing phloroglucinol; type: in vivo
Procedure: Sources: A bottle of cola concentrate (HFCS-55) and a bottle of concentrate having ⅓ less HFCS (the “Brix-reduced syrup”) were obtained. […] Both concentrates were then used to make cola beverages (volume 4.5 carbonated water) in a 1 plus 5 throw manner.
Experiments were conducted on a sugar reduced cola beverage. A control bottle of cola concentrate (HFCS-55) and a bottle of Brix reduced variant concentrate having 35% less HFCS than the control were used. […] Both concentrates were then used to make cola beverages with volume 4.5 carbonated water in a 1 plus 5 throw manner.
Taste experiments were conducted for a diet cola beverage. Unsweetened diet cola concentrate was used. Control syrup 1 was made by adding 3000 ppm aspartame to the concentrate. Control syrup 2 was made by adding 2400 ppm rebaudioside M to the diet cola concentrate. […] All concentrates were then used to make diet cola beverages with volume 4.5 carbonated water in a 1 plus 5 throw manner.
The finished control diet cola beverage 1 contained 500 ppm aspartame.
A total of 5 diet cola tasters evaluated the four beverages.

[6] = system: human sense of taste; experiment: Taste of QUAKER Instant Oatmeal containing phloroglucinol; type: in vivo
Procedure: Sugar was added to unsweetened QUAKER Instant Oatmeal (IQO) Original flavor. A high sugar control comprising 8 g sugar per bag of IQO (29 g) was prepared. A low sugar control comprising 5 g sugar per bag of IQO (29 g) was also prepared. […] The high control, low control, and variant formulations were placed in individual beakers and combined with about 200 mL of hot water. The resulting mixtures were stirred and then tasted. Taste tests were conducted while the mixtures were still warm and after the mixtures had cooled to room temperature.
The high and low controls described in Example 14 were again prepared. […] The high control, low control, and variant formulations were placed in individual beakers and combined with about 200 mL of hot water. The resulting mixtures were stirred and then tasted. Tasting was performed while the IQO was warm and after the IQO cooled to room temperature.

[7] = system: human sense of taste; experiment: Sweet taste intensity ranking by trained sensory discrimination panelists; type: in vivo
Excerpt: (§2) Panelists were asked to rank the samples in order of sweet taste intensity from low sweet to high sweet. Each panelist tasted each sample twice during the study such that each sample was judged a total of 30 times.
as §2
Panelists were asked to rank the samples in order of sweet taste intensity from low sweet to high sweet. Each panelist was presented a replicate set to render a total of 32 judgment data points.

[8] = Physicochemical properties of phloroglucinol; details: concentrations described; higher temperatures; sunlight
[9] = system: human sense of taste; experiment: Taste of sugar solutions with phloroglucinol and salt against sugar controls; type: in vivo; details: for Taste: body compared with 8% sugar control: 5% sugar in water
[10] = Example 8: 250 ppm phloroglucinol in 250 ppm aqueous rebaudioside A
[11] = Example 10, second taster: 250 ppm rebaudioside A with 800 ppm phloroglucinol
[12] = Example 13: 800 ppm phloroglucinol in SIERRA MIST
[13] = Example 25: 400 ppm phloroglucinol in 5% sucrose
[14] = Example 26: 400 ppm phloroglucinol and 200 ppm sodium chloride in 5% sucrose
[15] = Example 27: 800 ppm phloroglucinol in 8.475% sucrose
[16] = Example 17: 800 ppm phloroglucinol, 400 ppm salt, 8% sugar in water

Oc1cc(O)cc(O)c1 [phloroglucinol]
sweetness, as equivalent aqueous sucrose reference solution ([1]; Example 1: 400 ppm phloroglucinol in 5% aqueous sucrose, references 5%, 7%, 9% sucrose): > 5% and ~7% | temporal profile and quality of sweet taste ([1]; Example 2: 800 ppm phloroglucinol in 5% aqueous sucrose): sweetness of the variant took a split of a second to show but the backend seemed even sweeter; also recorded: the sweet taste was clean without lingering | sweetness, as equivalent sucrose reference solution ([1]; Example 3: 800 ppm phloroglucinol in 5% aqueous sucrose without buffer, references 5-9% sucrose in pH 3.0 citrate buffer): ~8% | temporal profile and quality of sweet taste ([1]; Example 3: 800 ppm phloroglucinol in 5% aqueous sucrose, references in pH 3.0 citrate buffer): sweetness of the variant took a split of a second to show but the backend seemed even sweeter; also recorded: the sweet taste was clean without lingering | sweetness, as equivalent aqueous fructose reference solution ([1]; Example 4: 800 ppm phloroglucinol in 2.5% aqueous fructose): > 3.5% and ~4% | temporal profile of sweet taste ([1]; Example 4: 800 ppm phloroglucinol in 2.5% aqueous fructose vs 4% fructose): the variant solution was sweeter in backend | sweetness, as equivalent aqueous glucose reference solution ([1]; Example 5: 800 ppm phloroglucinol in 5% aqueous glucose): ~8% and < 9% | dose response of apparent sweetness (FIG. 1) ([1]; Example 6: 40, 100, 200, 400, 600, 800 ppm phloroglucinol in 5% aqueous sucrose): approximately linear correlation between phloroglucinol concentration and apparent sweetness | sweetness, as equivalent aqueous rebaudioside A reference solution [1, 10]: ~320 ppm | taste quality (backend, bitter aftertaste of rebaudioside A) [1, 10]: a sweeter backend; also recorded: bitter aftertaste of rebaudioside A was not changed | bitterness of the variant solution [1, 11]: did not change | sweetness, as equivalent rebaudioside A reference solution [1, 11]: ~320 ppm | sweetness, as equivalent aqueous sucrose reference solution ([1]; Examples 2, 10: 800 ppm phloroglucinol in 5% aqueous sucrose, references 5%, 7%, 9% sucrose): > 7% and < 9% and ~8% | sweetness, as equivalent aqueous sucrose reference solution ([1]; Examples 7, 10, 11: 800 ppm phloroglucinol in 8% aqueous sucrose, first, second, third taster): > 10% and ~11% and > 11% | Taste ([2]; 300 ppm in water): No taste | sweet taste of phloroglucinol by itself ([2]; 300 ppm to 800 ppm in water): No sweet taste was observed; also recorded: does not have any taste | Taste ([2]; 400 ppm in water): No taste | Taste ([2]; 400 ppm phloroglucinol, 100 ppm salt in water): No taste | Taste ([2]; 500 ppm in water): No taste | Taste ([2]; 500 ppm phloroglucinol, 100 ppm salt in water): No taste | Taste ([2]; 600 ppm in water): No taste | Taste ([2]; 600 ppm phloroglucinol, 100 ppm salt in water): No taste | Taste, estimated sugar equivalent ([2]; 600 ppm phloroglucinol, 400 ppm salt in water): ~1% sugar | Taste ([2]; 800 ppm in water): No taste | taste of phloroglucinol in the presence of salt ([2]; Example 15: with sodium chloride): slightly sweet | phloroglucinol concentration required to achieve the sweetness of an 11% sugar solution ([3]; in the presence of 300 ppm salt): 500 ppm | phloroglucinol concentration required to achieve the sweetness of an 11% sugar solution ([3]; no salt): 800 ppm | sweetness, as equivalent sugar solution ([3]; Example 15 variant 2: 8% sugar, 500 ppm phloroglucinol, 300 ppm salt): 11 % sugar | sweetness compared with low control (no salt) and 11% sugar high control ([3]; Example 15 variant: 8% sugar, 300 ppm phloroglucinol, 300 ppm salt): much sweeter than the low control, but not quite as sweet as the high control | combination effect with rebaudioside C [4]: synergistic | sweetness of variant cola beverage compared with control cola (11.3 Brix) ([5]; Example 12: 1/3 less HFCS (8 Brix without phloroglucinol), 800 ppm phloroglucinol): equal | mouthfeel and flavor of variant cola beverage ([5]; Example 12: 1/3 less HFCS, 800 ppm phloroglucinol): good mouthfeel; also recorded: more sour but with less caramel sweet flavor | sweetness after storage ([5]; Example 12 cola, stored at 90° F. for 18 days): sweetness remained about the same | body and sourness [5, 12]: good body; also recorded: Sourness was about the same | sweetness compared with untreated control [5, 12]: much sweeter than the control | sweetness of variant cola beverage compared with control cola (11.3 Brix) ([5]; Example 19: 35% less HFCS (7.5 Brix), 400 ppm phloroglucinol and 1% D-psicose): equal | mouthfeel of variant cola beverage ([5]; Example 19: 400 ppm phloroglucinol and 1% D-psicose): very good mouthfeel | sweetness compared with low control (5 g sugar) and high control (8 g sugar) ([6]; Example 14: 5 g sugar and 137 mg phloroglucinol per bag of IQO (29 g), warm and room temperature): sweeter than the low control but not quite as sweet as the high control | sweetness compared with high control (8 g sugar) ([6]; Example 21: 5 g sugar, 100 mg phloroglucinol, 1 g D-psicose per bag of IQO (29 g)): sweetness similar to the high control | sweet taste increased to, as sucrose equivalent [7, 13]: approximately 6.4% | sweetness enhancement [7, 13]: approximately 28% | sweet taste increased to, as sucrose equivalent [7, 14]: approximately 6.6% | sweetness enhancement [7, 14]: approximately 32% | statistical comparison with 11.3% sucrose solution [7, 15]: statistically indistinguishable from the 11.3% solution | sweet taste increased to, as sucrose equivalent [7, 15]: approximately 11.76% | sweetness enhancement [7, 15]: about 39% | stability in solution [8]: stable and does not precipitate out of solution at the concentrations described herein, or break down at higher temperatures or when exposed to sunlight | Taste: body compared with 8% sugar control ([9]; 600 ppm phloroglucinol, 400 ppm salt): more body | Taste: body compared with 8% sugar control ([9]; 800 ppm phloroglucinol, 400 ppm salt): more body | Taste: sweet taste as sugar equivalent ([9]; Example 17: 600 ppm phloroglucinol, 600 ppm salt, 8% sugar in water): ≥ 11 % sugar | Taste: body [9, 16]: high body | Taste: sweet taste as sugar equivalent [9, 16]: 12 % sugar | Taste: sweet taste as sugar equivalent ([9]; Example 17: 800 ppm phloroglucinol, no salt, 8% sugar in water): 11 % sugar | Taste: sweet taste as sugar equivalent ([9]; Example 17: 800 ppm phloroglucinol, no salt, 8% sugar in water, listed as Phloroglucinol): ~11% sugar
